The supplement of paper PMC11451515

Assays:
Conditions in all cases: 48 h
NOMO1 [1] = assay: AUC of viability dose-response curve (% viability x log10 dose units); higher = less sensitive
Procedure, shortened: (§1)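 Over 48 h at 37°C, leukemia cells in 1536-well plates (500 or 1000 cells/well), adapted to each medium, received library compounds in DMSO at 11 threefold doses from 47 μM to 0.79 nM. CellTiter-Glo One luminescence, normalised per plate to DMSO and cell-free wells, was fitted by a four-parameter log-logistic function of log10 dose. The area under the curve was then integrated by trapezoidal rule, after scaling curves above full viability and removing those that failed quality control.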

SEM cells [2] = assay: as above
Procedure, shortened: as §1

P12-Ichikawa [3] = assay: as above
Procedure, shortened: as §1

NOMO1 [4] = assay: cell viability relative to DMSO control; higher = less cytotoxic
Procedure, shortened: (§2)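 Library compounds in DMSO were pin-dosed into 1536-well plates (5 μl) holding NOMO1 or SEM (500 cells/well) or P12-Ichikawa (1000 cells/well) leukemia cells, across an 11-point threefold series of 47 μM to 0.79 nM. Each cell line had been adapted for at least four passages in each medium. CellTiter-Glo One luminescence was read after 48 h at 37°C. Viability is the per-plate percentage relative to DMSO wells, with cell-free wells as background.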

SEM cells [5] = assay: as above
Procedure, shortened: as §2

P12-Ichikawa [6] = assay: as above
Procedure, shortened: as §2

[7] = RPMI 5 mM glucose + 10% dialyzed FBS
[8] = HPLM + 10% dialyzed FBS, 0.000781 µM
[9] = HPLM + 10% dialyzed FBS, 0.00234 µM
[10] = HPLM + 10% dialyzed FBS, 0.00702 µM
[11] = HPLM + 10% dialyzed FBS, 0.0211 µM
[12] = HPLM + 10% dialyzed FBS, 0.0632 µM
[13] = HPLM + 10% dialyzed FBS, 0.19 µM
[14] = HPLM + 10% dialyzed FBS, 0.569 µM
[15] = HPLM + 10% dialyzed FBS, 1.71 µM
[16] = HPLM + 10% dialyzed FBS, 5.12 µM
[17] = HPLM + 10% dialyzed FBS, 15.4 µM
[18] = HPLM + 10% dialyzed FBS, 46.1 µM
[19] = RPMI 5 mM glucose + 10% FBS, 0.000781 µM
[20] = RPMI 5 mM glucose + 10% FBS, 0.00234 µM
[21] = RPMI 5 mM glucose + 10% FBS, 0.00702 µM
[22] = RPMI 5 mM glucose + 10% FBS, 0.0211 µM
[23] = RPMI 5 mM glucose + 10% FBS, 0.0632 µM
[24] = RPMI 5 mM glucose + 10% FBS, 0.19 µM
[25] = RPMI 5 mM glucose + 10% FBS, 0.569 µM
[26] = RPMI 5 mM glucose + 10% FBS, 1.71 µM
[27] = RPMI 5 mM glucose + 10% FBS, 5.12 µM
[28] = RPMI 5 mM glucose + 10% FBS, 15.4 µM
[29] = RPMI 5 mM glucose + 10% FBS, 46.1 µM
[30] = RPMI 5 mM glucose + 10% dialyzed FBS, 0.000781 µM
[31] = RPMI 5 mM glucose + 10% dialyzed FBS, 0.00234 µM
[32] = RPMI 5 mM glucose + 10% dialyzed FBS, 0.00702 µM
[33] = RPMI 5 mM glucose + 10% dialyzed FBS, 0.0211 µM
[34] = RPMI 5 mM glucose + 10% dialyzed FBS, 0.0632 µM
[35] = RPMI 5 mM glucose + 10% dialyzed FBS, 0.19 µM
[36] = RPMI 5 mM glucose + 10% dialyzed FBS, 0.569 µM
[37] = RPMI 5 mM glucose + 10% dialyzed FBS, 1.71 µM
[38] = RPMI 5 mM glucose + 10% dialyzed FBS, 5.12 µM
[39] = RPMI 5 mM glucose + 10% dialyzed FBS, 15.4 µM
[40] = RPMI 5 mM glucose + 10% dialyzed FBS, 46.1 µM

O=C(O)CCn1c2c(c3ccccc31)C[C@H](N[S+](=O)([O-])c1ccc(F)cc1)CC2
AUC of viability dose-response curve (NOMO1 [1]; HPLM + 10% dialyzed FBS): 458 | AUC of viability dose-response curve (NOMO1 [1]; RPMI 5 mM glucose + 10% FBS): 457 | AUC of viability dose-response curve (NOMO1 [1]; [7]): 448 | AUC of viability dose-response curve (SEM cells [2]; HPLM + 10% dialyzed FBS): 471 | AUC of viability dose-response curve (SEM cells [2]; RPMI 5 mM glucose + 10% FBS): 449 | AUC of viability dose-response curve (SEM cells [2]; [7]): 472 | AUC of viability dose-response curve (P12-Ichikawa [3]; HPLM + 10% dialyzed FBS): 465 | AUC of viability dose-response curve (P12-Ichikawa [3]; RPMI 5 mM glucose + 10% FBS): 468 | AUC of viability dose-response curve (P12-Ichikawa [3]; [7]): 453 | cell viability (NOMO1 [4]; [8]): 115% | cell viability (NOMO1 [4]; [9]): 112% | cell viability (NOMO1 [4]; [10]): 120% | cell viability (NOMO1 [4]; [11]): 124% | cell viability (NOMO1 [4]; [12]): 113% | cell viability (NOMO1 [4]; [13]): 109% | cell viability (NOMO1 [4]; [14]): 104% | cell viability (NOMO1 [4]; [15]): 105% | cell viability (NOMO1 [4]; [16]): 116% | cell viability (NOMO1 [4]; [17]): 88.3% | cell viability (NOMO1 [4]; [18]): 72.2% | cell viability (NOMO1 [4]; [19]): 102% | cell viability (NOMO1 [4]; [20]): 105% | cell viability (NOMO1 [4]; [21]): 108% | cell viability (NOMO1 [4]; [22]): 98.2% | cell viability (NOMO1 [4]; [23]): 114% | cell viability (NOMO1 [4]; [24]): 99% | cell viability (NOMO1 [4]; [25]): 99.2% | cell viability (NOMO1 [4]; [26]): 98.7% | cell viability (NOMO1 [4]; [27]): 94.2% | cell viability (NOMO1 [4]; [28]): 102% | cell viability (NOMO1 [4]; [29]): 90.5% | cell viability (NOMO1 [4]; [30]): 99.2% | cell viability (NOMO1 [4]; [31]): 107% | cell viability (NOMO1 [4]; [32]): 120% | cell viability (NOMO1 [4]; [33]): 102% | cell viability (NOMO1 [4]; [34]): 95.8% | cell viability (NOMO1 [4]; [35]): 102% | cell viability (NOMO1 [4]; [36]): 109% | cell viability (NOMO1 [4]; [37]): 98.1% | cell viability (NOMO1 [4]; [38]): 103% | cell viability (NOMO1 [4]; [39]): 91.8% | cell viability (NOMO1 [4]; [40]): 85.9% | cell viability (SEM cells [5]; [8]): 112% | cell viability (SEM cells [5]; [9]): 115% | cell viability (SEM cells [5]; [10]): 112% | cell viability (SEM cells [5]; [11]): 110% | cell viability (SEM cells [5]; [12]): 111% | cell viability (SEM cells [5]; [13]): 106% | cell viability (SEM cells [5]; [14]): 96.8% | cell viability (SEM cells [5]; [15]): 126% | cell viability (SEM cells [5]; [16]): 118% | cell viability (SEM cells [5]; [17]): 107% | cell viability (SEM cells [5]; [18]): 104% | cell viability (SEM cells [5]; [19]): 120% | cell viability (SEM cells [5]; [20]): 102% | cell viability (SEM cells [5]; [21]): 118% | cell viability (SEM cells [5]; [22]): 109% | cell viability (SEM cells [5]; [23]): 122% | cell viability (SEM cells [5]; [24]): 108% | cell viability (SEM cells [5]; [25]): 86.7% | cell viability (SEM cells [5]; [26]): 117% | cell viability (SEM cells [5]; [27]): 104% | cell viability (SEM cells [5]; [28]): 107% | cell viability (SEM cells [5]; [29]): 96.4% | cell viability (SEM cells [5]; [30]): 112% | cell viability (SEM cells [5]; [31]): 119% | cell viability (SEM cells [5]; [32]): 119% | cell viability (SEM cells [5]; [33]): 123% | cell viability (SEM cells [5]; [34]): 122% | cell viability (SEM cells [5]; [35]): 120% | cell viability (SEM cells [5]; [36]): 90.6% | cell viability (SEM cells [5]; [37]): 106% | cell viability (SEM cells [5]; [38]): 128% | cell viability (SEM cells [5]; [39]): 120% | cell viability (SEM cells [5]; [40]): 124% | cell viability (P12-Ichikawa [6]; [8]): 117% | cell viability (P12-Ichikawa [6]; [9]): 113% | cell viability (P12-Ichikawa [6]; [11]): 110% | cell viability (P12-Ichikawa [6]; [12]): 113% | cell viability (P12-Ichikawa [6]; [13]): 106% | cell viability (P12-Ichikawa [6]; [14]): 113% | cell viability (P12-Ichikawa [6]; [15]): 111% | cell viability (P12-Ichikawa [6]; [16]): 106% | cell viability (P12-Ichikawa [6]; [17]): 100% | cell viability (P12-Ichikawa [6]; [18]): 73.6% | cell viability (P12-Ichikawa [6]; [19]): 119% | cell viability (P12-Ichikawa [6]; [20]): 120% | cell viability (P12-Ichikawa [6]; [21]): 121% | cell viability (P12-Ichikawa [6]; [22]): 121% | cell viability (P12-Ichikawa [6]; [23]): 120% | cell viability (P12-Ichikawa [6]; [24]): 122% | cell viability (P12-Ichikawa [6]; [25]): 122% | cell viability (P12-Ichikawa [6]; [26]): 111% | cell viability (P12-Ichikawa [6]; [27]): 114% | cell viability (P12-Ichikawa [6]; [28]): 115% | cell viability (P12-Ichikawa [6]; [29]): 95.5% | cell viability (P12-Ichikawa [6]; [30]): 110% | cell viability (P12-Ichikawa [6]; [31]): 116% | cell viability (P12-Ichikawa [6]; [32]): 116% | cell viability (P12-Ichikawa [6]; [33]): 114% | cell viability (P12-Ichikawa [6]; [34]): 115% | cell viability (P12-Ichikawa [6]; [35]): 103% | cell viability (P12-Ichikawa [6]; [36]): 109% | cell viability (P12-Ichikawa [6]; [37]): 108% | cell viability (P12-Ichikawa [6]; [38]): 102% | cell viability (P12-Ichikawa [6]; [39]): 92.2% | cell viability (P12-Ichikawa [6]; [40]): 66.9%
